In PubChem BioAssay AID330 (DTP/NCI, 2004):
“And” between values parts separate entries of the source, which are not always exact repeats. Identical values can stand only once. Inconclusive results and toxic doses are left out. The calls were made as follows: active = survival T/C of 150% or more; inactive = T/C below 125% in these data.

Tested on: P388 leukemia ip, CD2F1 mice, survival T/C
Test: NCI In Vivo Anticancer Drug Screen. Data for tumor model P388 Leukemia (intraperitoneal) in CD2F1 (CDF1) mice
Conditions: endpoint: median survival time, higher = longer survival
Outline: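 Mice carrying the transplanted tumor received test compound or vehicle. Survival was recorded in each group, and the value is the treated-group measurement divided by that of the vehicle-treated control group.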

[1] = dose: 50.0 mg/kg/injection, schedule: Q01DX009 (ip), vehicle: Klucel (hydroxypropylcellulose) (HPC)
[2] = dose: 100.0 mg/kg/injection, schedule: Q01DX009 (ip), vehicle: Klucel (hydroxypropylcellulose) (HPC)
[3] = dose: 200.0 mg/kg/injection, schedule: Q01DX009 (ip), vehicle: Klucel (hydroxypropylcellulose) (HPC)
[4] = dose: 100.0 mg/kg/injection, schedule: Q01DX001 (ip), vehicle: saline with Tween-80
[5] = dose: 200.0 mg/kg/injection, schedule: Q01DX001 (ip), vehicle: saline with Tween-80
[6] = dose: 400.0 mg/kg/injection, schedule: Q01DX001 (ip), vehicle: saline with Tween-80
[7] = dose: 50.0 mg/kg/injection, schedule: Q01DX005 (ip), vehicle: Klucel (hydroxypropylcellulose) (HPC)
[8] = dose: 50.0 mg/kg/injection, schedule: Q01DX005 (ip), vehicle: saline with Tween-80
[9] = dose: 100.0 mg/kg/injection, schedule: Q01DX005 (ip), vehicle: saline with Tween-80
[10] = dose: 50.0 mg/kg/injection, schedule: Q01DX009 (ip), vehicle: saline with Tween-80
[11] = dose: 60.0 mg/kg/injection, schedule: Q01DX005 (ip), vehicle: Klucel (hydroxypropylcellulose) (HPC)
[12] = dose: 120.0 mg/kg/injection, schedule: Q01DX005 (ip), vehicle: Klucel (hydroxypropylcellulose) (HPC)
[13] = dose: 240.0 mg/kg/injection, schedule: Q01DX005 (ip), vehicle: Klucel (hydroxypropylcellulose) (HPC)
[14] = dose: 60.0 mg/kg/injection, schedule: Q01DX005 (ip), vehicle: saline with Tween-80
[15] = dose: 120.0 mg/kg/injection, schedule: Q01DX005 (ip), vehicle: saline with Tween-80
[16] = dose: 240.0 mg/kg/injection, schedule: Q01DX005 (ip), vehicle: saline with Tween-80
[17] = dose: 100.0 mg/kg/injection, schedule: Q01DX009 (ip), vehicle: saline with Tween-80
[18] = dose: 200.0 mg/kg/injection, schedule: Q01DX009 (ip), vehicle: saline with Tween-80

Measured: T/C

CC(C)(C)C(=O)OCCOCCOC(=O)c1ccccc1
inactive: [1] 95 % of control | [2] 104 % of control | [3] 102 % of control

CCCCCCCCCCCCCCCCS(=O)(=O)N/N=C(\c1ccc(C(C)C)cc1)N1CCOCC1
inactive: [1] 90 % of control | [2] 89 % of control | [3] 90 % of control

COc1ccc(NCC(=O)O)c([N+](=O)[O-])c1
inactive: [4] 100 % of control | [5] 109 % of control | [6] 109 % of control

O=C1NC(=O)C(c2ccccc2)(c2ccccc2)C2CC3c4[nH]c5ccccc5c4CCN3CC12 (stereo unspecified)
inactive: dose: 25.0 mg/kg/injection, schedule: Q01DX001 (ip), vehicle: saline 117 % of control | dose: 50.0 mg/kg/injection, schedule: Q01DX001 (ip), vehicle: saline 88 % of control | dose: 100.0 mg/kg/injection, schedule: Q01DX001 (ip), vehicle: saline 114 % of control and 90 % of control

Cc1c(C#N)c(N)nc2c(C(N)=O)nsc12
inactive: dose: 6.25 mg/kg/injection, schedule: Q01DX005 (ip), vehicle: Klucel (hydroxypropylcellulose) (HPC) 98 % of control | dose: 12.5 mg/kg/injection, schedule: Q01DX005 (ip), vehicle: Klucel (hydroxypropylcellulose) (HPC) 102 % of control | dose: 25.0 mg/kg/injection, schedule: Q01DX005 (ip), vehicle: Klucel (hydroxypropylcellulose) (HPC) 95 % of control | [7] 91 % of control

c1ccc(-c2nc3cc4c(cc3n3cccc23)oc2ccccc24)cc1
inactive: dose: 25.0 mg/kg/injection, schedule: Q01DX005 (ip), vehicle: saline with Tween-80 95 % of control | [8] 100 % of control | [9] 94 % of control

CC(C)=CCC(OC(=O)C=C(C)C)c1cc(O)c2c(O)ccc(O)c2c1O.[Co] (stereo unspecified)
inactive: [4] 103 % of control | [5] 101 % of control | [6] 113 % of control

CC(C)CCN=Cc1ccccc1O.CC(C)CCN=Cc1ccccc1O.[Zn]
inactive: [1] 98 % of control | [2] 104 % of control

CN(C)c1ccc2ccc(N(C)C)nc2c1
inactive: dose: 12.5 mg/kg/injection, schedule: Q01DX009 (ip), vehicle: saline with Tween-80 93 % of control | dose: 25.0 mg/kg/injection, schedule: Q01DX009 (ip), vehicle: saline with Tween-80 117 % of control | [10] 89 % of control and 95 % of control

COc1ccc(C2C(C#N)=C(c3ccccc3)OC(OC)(OC)C2(OC)OC)cc1 (stereo unspecified)
inactive: [11] 102 % of control | [12] 102 % of control | [13] 99 % of control

N/N=C1\c2ccccc2-c2cccc(N)c21
inactive: [14] 102 % of control | [15] 112 % of control | [16] 99 % of control

COC(=O)c1nnc(C(=O)OC)c2c1c1ccccc1n2C(=O)c1ccccc1
inactive: [14] 105 % of control | [15] 93 % of control | [16] 91 % of control

Cc1c(-c2ccccc2)oc(=O)c(Cl)c1N(C)C
inactive: [8] 102 % of control | [9] 100 % of control | dose: 200.0 mg/kg/injection, schedule: Q01DX005 (ip), vehicle: saline with Tween-80 100 % of control

CC(=O)/C=C/c1ccc(O)cc1
inactive: [10] 110 % of control | [17] 98 % of control | dose: 100.0 mg/kg/injection, schedule: Q04DX003 (ip), vehicle: saline with Tween-80 105 % of control | [18] 100 % of control | dose: 200.0 mg/kg/injection, schedule: Q04DX003 (ip), vehicle: saline with Tween-80 113 % of control | dose: 400.0 mg/kg/injection, schedule: Q04DX003 (ip), vehicle: saline with Tween-80 105 % of control

Nc1cccc[n+]1CCCCCC[n+]1ccccc1N
inactive: dose: 3.13 mg/kg/injection, schedule: Q01DX009 (ip), vehicle: saline 102 % of control | dose: 6.25 mg/kg/injection, schedule: Q01DX009 (ip), vehicle: saline 103 % of control

Cc1ccc(C)c([N+](=O)[O-])c1C(=O)O
inactive: dose: 100.0 mg/kg/injection, schedule: Q04DX003 (ip), vehicle: saline + alcohol 98 % of control | dose: 200.0 mg/kg/injection, schedule: Q04DX003 (ip), vehicle: saline + alcohol 98 % of control

CNC(=O)C(O)c1c(-c2ccccc2)c(-c2ccccc2)c2n1CCC2 (stereo unspecified)
inactive: [11] 96 % of control | [12] 89 % of control | [13] 86 % of control

O=[N+]([O-])c1ccc(OCCSc2ccccc2)cc1
inactive: [10] 90 % of control | [17] 98 % of control | [18] 100 % of control

CCC1C(c2c[nH]c3ccccc23)N(C=O)CCC1(O)C(C)=O (stereo unspecified)
inactive: dose: 4.38 mg/kg/injection, schedule: Q01DX005 (ip), vehicle: Klucel (hydroxypropylcellulose) (HPC) 99 % of control | dose: 8.75 mg/kg/injection, schedule: Q01DX005 (ip), vehicle: Klucel (hydroxypropylcellulose) (HPC) 99 % of control | dose: 17.5 mg/kg/injection, schedule: Q01DX005 (ip), vehicle: Klucel (hydroxypropylcellulose) (HPC) 96 % of control

C=C(C)[C@@H]1CC[C@](C)(CCC#N)/C(=N\NC(N)=O)C1
inactive: dose: 100.0 mg/kg/injection, schedule: Q04DX003 (ip), vehicle: Klucel (hydroxypropylcellulose) (HPC) 99 % of control | dose: 200.0 mg/kg/injection, schedule: Q04DX003 (ip), vehicle: Klucel (hydroxypropylcellulose) (HPC) 102 % of control | dose: 400.0 mg/kg/injection, schedule: Q04DX003 (ip), vehicle: Klucel (hydroxypropylcellulose) (HPC) 89 % of control

O=C1CCC2CN3CCc4c([nH]c5ccccc45)C3CC2C1 (stereo unspecified)
inactive: [14] 100 % of control | [15] 106 % of control

Cc1nc2c(cnn2C)c(=O)n1Cc1ccccc1
inactive: [7] 104 % of control | dose: 100.0 mg/kg/injection, schedule: Q01DX005 (ip), vehicle: Klucel (hydroxypropylcellulose) (HPC) 97 % of control | dose: 200.0 mg/kg/injection, schedule: Q01DX005 (ip), vehicle: Klucel (hydroxypropylcellulose) (HPC) 103 % of control
